Laboratory results published in US10577317B2, “Crystal forms and production methods thereof” (Sunovion Pharmaceuticals Inc., priority 2017, dated 2020).

Columns and labels:
[1] = Solid form stability on storage at 25° C. and 60% relative humidity; assay type: physicochemical; settings: after 4 months at 25° C. and 60% relative humidity (RH)
[2] = DVS water sorption isotherm, 25° C. scanned over 0 to 95% relative humidity (hygroscopicity); assay type: physicochemical
Description: In various embodiments, the hygroscopicity of crystal forms of racemic amisulpride, enantiomeric amisulpride, and enantiomeric amisulpride solvates are characterized by dynamic vapor sorption (DVS). DVS is a gravimetric technique that measures how much of a solvent is absorbed by a sample by varying the vapor concentration surrounding the sample (e.g., relative humidity) and measuring the change in mass. In the present application, DVS is used to generate water sorption isotherms, which represent the equilibrium amount of vapor sorbed as a function of steady state relative vapor pressure at a constant temperature.

[3] = DVS, 25° C., 0 to 95% relative humidity

Structure (SMILES): CCN1CCC[C@H]1CNC(=O)c1cc(S(=O)(=O)CC)c(N)cc1OC [(S)-amisulpride Form A′, S-4-Amino-N-[(1-ethyl-2-pyrrolidinyl)methyl]-5-(ethylsulfonyl)-2-methoxybenzamide]
- thermodynamic stability of crystal form (conversion to other polymorphs or amorphous form) [1]: not substantially converting to other polymorphs or amorphous form
- hygroscopicity [2, 3]: substantially non-hygroscopic (less than a 1% maximum mass change in water sorption isotherms, at 25 °C scanned over 0 to 95% relative humidity)
- maximum mass change in water sorption isotherms [2, 3]: 0.35%
- average maximum mass change based on the data of Tables 6B and 6C ([2]; DVS, Tables 6B and 6C only): about 0.16%
- average maximum mass change ([2]; DVS, average over the samples of Tables 6A-6C (Form A′) or 6D-6E (Form A)): about 0.22%
- Change Mass ([2]; FIG. 3D, RH 0 %, elapse time 60.72 min, sorption): 0.00 wt %
- Change Mass ([2]; FIG. 3D, RH 1 %, elapse time 32.02 min, desorption): −0.01 wt %
- Change Mass ([2]; FIG. 3D, RH 10 %, elapse time 31.00 min, desorption): 0.01 wt %
- Change Mass ([2]; FIG. 3D, RH 10 %, elapse time 33.25 min, sorption): 0.03 wt %
- Change Mass ([2]; FIG. 3D, RH 20 %, elapse time 31.89 min, sorption): 0.05 wt %
- Change Mass ([2]; FIG. 3D, RH 20 %, elapse time 32.05 min, desorption): 0.03 wt %
- Change Mass ([2]; FIG. 3D, RH 30 %, elapse time 32.20 min, sorption): 0.07 wt %
- Change Mass ([2]; FIG. 3D, RH 30 %, elapse time 62.67 min, desorption): 0.05 wt %
- Change Mass ([2]; FIG. 3D, RH 40 %, elapse time 31.41 min, desorption): 0.07 wt %
- Change Mass ([2]; FIG. 3D, RH 40 %, elapse time 31.53 min, sorption): 0.09 wt %
- Change Mass ([2]; FIG. 3D, RH 50 %, elapse time 31.95 min, sorption): 0.11 wt %
- Change Mass ([2]; FIG. 3D, RH 50 %, elapse time 32.12 min, desorption): 0.08 wt %
- Change Mass ([2]; FIG. 3D, RH 60 %, elapse time 31.87 min, sorption): 0.13 wt %
- Change Mass ([2]; FIG. 3D, RH 60 %, elapse time 32.10 min, desorption): 0.11 wt %
- Change Mass ([2]; FIG. 3D, RH 70 %, elapse time 31.10 min, sorption): 0.16 wt %
- Change Mass ([2]; FIG. 3D, RH 70 %, elapse time 31.50 min, desorption): 0.14 wt %
- Change Mass ([2]; FIG. 3D, RH 75 %, elapse time 31.01 min, desorption): 0.16 wt %
- Change Mass ([2]; FIG. 3D, RH 75 %, elapse time 31.28 min, sorption): 0.18 wt %
- Change Mass ([2]; FIG. 3D, RH 80 %, elapse time 31.43 min, sorption): 0.19 wt %
- Change Mass ([2]; FIG. 3D, RH 80 %, elapse time 32.11 min, desorption): 0.17 wt %
- Change Mass ([2]; FIG. 3D, RH 90 %, elapse time 31.35 min, desorption): 0.28 wt %
- Change Mass ([2]; FIG. 3D, RH 90 %, elapse time 31.97 min, sorption): 0.25 wt %
- Change Mass ([2]; FIG. 3D, RH 95 %, elapse time 32.77 min, sorption): 0.34 wt %
- Change Mass ([2]; FIG. 3D, RH 95 %, elapse time 36.47 min, desorption): 0.35 wt %
- Change Mass ([2]; FIG. 3E, RH 1.33 %, elapse time 60.4 min): 0.000 wt %
- Change Mass ([2]; FIG. 3E, RH 5.06 %, elapse time 923.6 min): −0.028 wt %
- Change Mass ([2]; FIG. 3E, RH 5.09 %, elapse time 590.9 min): −0.004 wt %
- Change Mass ([2]; FIG. 3E, RH 5.15 %, elapse time 243.7 min): −0.010 wt %
- Change Mass ([2]; FIG. 3E, RH 9.91 %, elapse time 260.3 min): −0.006 wt %
- Change Mass ([2]; FIG. 3E, RH 9.94 %, elapse time 598.9 min): 0.000 wt %
- Change Mass ([2]; FIG. 3E, RH 10.06 %, elapse time 582.9 min): 0.003 wt %
- Change Mass ([2]; FIG. 3E, RH 10.08 %, elapse time 915.6 min): −0.023 wt %
- Change Mass ([2]; FIG. 3E, RH 14.90 %, elapse time 606.9 min): 0.004 wt %
- Change Mass ([2]; FIG. 3E, RH 14.99 %, elapse time 270.3 min): 0.000 wt %
- Change Mass ([2]; FIG. 3E, RH 15.08 %, elapse time 574.9 min): 0.010 wt %
- Change Mass ([2]; FIG. 3E, RH 15.12 %, elapse time 907.6 min): −0.017 wt %
- Change Mass ([2]; FIG. 3E, RH 19.74 %, elapse time 278.3 min): 0.006 wt %
- Change Mass ([2]; FIG. 3E, RH 19.88 %, elapse time 614.9 min): 0.009 wt %
- Change Mass ([2]; FIG. 3E, RH 20.10 %, elapse time 566.9 min): 0.017 wt %
- Change Mass ([2]; FIG. 3E, RH 20.12 %, elapse time 899.6 min): −0.012 wt %
- Change Mass ([2]; FIG. 3E, RH 24.83 %, elapse time 623.9 min): 0.014 wt %
- Change Mass ([2]; FIG. 3E, RH 24.90 %, elapse time 891.6 min): −0.007 wt %
- Change Mass ([2]; FIG. 3E, RH 24.92 %, elapse time 287.8 min): 0.013 wt %
- Change Mass ([2]; FIG. 3E, RH 24.95 %, elapse time 558.9 min): 0.024 wt %
- Change Mass ([2]; FIG. 3E, RH 29.82 %, elapse time 296.8 min): 0.019 wt %
- Change Mass ([2]; FIG. 3E, RH 29.84 %, elapse time 632.9 min): 0.019 wt %
- Change Mass ([2]; FIG. 3E, RH 30.09 %, elapse time 551.4 min): 0.031 wt %
- Change Mass ([2]; FIG. 3E, RH 30.10 %, elapse time 884.1 min): −0.001 wt %
- Change Mass ([2]; FIG. 3E, RH 34.80 %, elapse time 305.8 min): 0.026 wt %
